Assay results taken from patent publication US9034876B2, “Treatment of chronic inflammation with a 1,2,4-triazolo [1,5a] pyridine derivative” (Cephalon, Inc., priority 2010, dated 2015).

Test system: phospho-STAT3
Assay: CAIA model, paw phospho-STAT3 (Luminex bead assay)
Type: in vivo, female DBA/1 mice
Conditions: Dex 1.5 mg/kg i.p. three times a week (day 6-8)
Procedure: DBA/1 female mice were injected i.v. with purified anti-collagen type II antibodies, then given 25 μg of LPS i.p. three days later to induce arthritis by day 5. Mice that met the arthritis criteria score of 1 per paw were entered into the study. Compound A was provided orally, b.i.d., for all doses tested; Dex was provided at 1.5 mg/kg three times a week, i.p.; and vehicle (PEG400+1% DMSO) was provided orally.
The graphed data was generated using Luminex® bead kits, concentration in units per ml per 3 mg of total protein as determined by the BSA assay. The graphed data represents mean±SEM, statistics were performed using 2-way ANOVA analysis.
To investigate the effect of Compound A on levels of phosphorylated STATs and cytokines in the paws of treated mice, a method was developed whereby synovial fluid and cellular joint extracts could be obtained from the paws and ankles of diseased animals for analysis using multiplex bead arrays [32]. […] Consequently, multiplex analysis was used as the primary method of measuring phosphorylated STATs for all experiments described herein.
Briefly, the front (including carpus) and back (including tarsus) right paws were collected and frozen in dry-ice cooled isopentane and stored at −80° C. until use. The paws were cut to 2 mm×2 mm segments and kept on dry-ice in round bottom polypropylene tubes. Seven hundred microliters tissue extraction buffer containing protease inhibitor cocktail (Calbiochem, San Diego, Calif.) and Halt phosphatase inhibitor cocktail (Thermo Scientific, Rockford, Ill.) or Roche phosphatase inhibitor cocktail (Roche, Indianapolis, Ind.) in tissue extraction reagent I (Invitrogen, Carlesbad, Calif.) were added to each sample. Samples were homogenized frozen using a PT 10-35 Polytron homogenizer. After homogenization, samples were centrifuged at 4° C. for 2000×g for 10 minutes and supernatants re-centrifuged at 4° C. at maximum speed, 14,000×g, for 15 minutes. Supernatants were carefully removed to avoid picking up the top layer of lipids/adipose debris. Protein concentration was measured using a BCA protein assay (Pierce, Rockford, Ill.) and adjusted to 3 mg/ml. A minimum of 25 μl of this extraction was used in the above described protocol using the mouse cytokine 10-plex bead kit (Invitrogen, Carlsbad, Calif.) or phosphorylated STAT1, 3, 5a/b, 3-plex kit (Invitrogen, Carlsbad, Calif.).

C[C@@H]1C[C@H]2[C@@H]3CCC4=CC(=O)C=C[C@]4(C)[C@@]3(F)[C@@H](O)C[C@]2(C)[C@@]1(O)C(=O)CO [Dex, Dexamethasone, reference compound]
time post treatment initiation at which the pSTAT3 reduction was reached: 48 hours
